In patent US6512166B1, “Combinations of fungal cell wall degrading enzyme and fungal cell membrane affecting compound” (priority 1991, dated 2003):
Read-outs that look alike come from different tables or passages of the source.

What was measured:
[1] = Solubility, guidance for forming solutions
Excerpt: Compositions for use in the systems herein are readily formulated by admixing the fungal cell wall degrading enzymes and the antifungal fungal cell membrane affecting compounds with non-toxic carriers appropriate for the particular use for a composition, e.g., agriculturally acceptable carriers for agricultural uses and pharmaceutically acceptable carriers for medicinal uses. They may be formulated as liquids (solutions or suspensions) or as solids. Since the fungal cell wall degrading enzymes need free water for activity, water must be present at the time of function. […] Water is a preferred vehicle where components are soluble in it. […] Organic solvents can also be used and may be required in some cases if a solution is desired. Guidance for forming solutions follows. […] Suspension can also be employed.

[2] = test system: Fusarium oxysporum strain FOP1; test: Inhibition of spore germination, ELISA plate assay (Examples V-XIV, XVII); type: cell-based; conditions: Table 29; concentration of miconazole for 50% inhibition, alone or with enzyme at its ED10 concentration
Protocol: (§1) The concentration where fungal cell wall degrading enzyme individually provides a specified percentage fungal inhibition or where antifungal fungal cell membrane affecting compound individually provides a specific percentage fungal inhibition can be determined as follows: Assays are performed under sterile conditions. Equal volumes of spore suspensions, 3× potato dextrose broth, and the test solution or suspension in 5 mM Tris-HCl (pH 6.0) or 5 mM potassium phosphate buffer (pH 6.7) are mixed. The control is the same as the test solution except for the control the antifungal agent is omitted. The assay mixtures (total volume 45 or 30 μl) are incubated on flat-bottomed ELISA plates, each containing 96 wells, with 2,000 to 3,000 spores per well, at 25° C. After 22 to 30 hours, the plates are placed under an inverted microscope. The percentage of conidia germinating is determined as the percentage of the first 100 spores randomly found in a well. In addition, the lengths of 20 germ tubes are measured and averaged. All experiments are performed twice, with three replicates for each treatment. The inhibition values obtained in the two experiments are combined and averaged, and standard deviations are calculated from the 6 data points. The values obtained for the control are taken as 0% inhibition and all other values are divided by the values obtained for the control and multiplied by 100% to obtain percent inhibition. Determination of concentration corresponding to a particular percent inhibition is carried out by subjecting dose-response curves to regression analysis by using a binomial regression of the third order, with R^2 ranging between 0.95 and 0.99.
(§2) Assays were carried out by the procedure described in the summary of the invention section. Dose response curves were obtained by probit analysis of data collected from two separate experiments with each experiment involving three treatment replicates.
(§3) Dose response curves were determined for each antifungal fungal cell membrane affecting compound and for each fungal cell wall degrading enzyme singly. Then each fungal cell wall degrading enzyme at a concentration giving 10% inhibition when used alone was combined with increasing amounts of antifungal fungal cell membrane affecting compound. Then the concentration of antifungal fungal cell membrane affecting compound causing the ED50 for each combination was calculated by probit analysis of data collected from two experiments with three treatment replicates for each experiment. Assays for inhibition of spore germination were carried out as described in the summary of invention section above.
The relative level of synergism (RS below) for each combination was calculated by applying Limpel's formula: Ee=X+Y−(XY/100) as described in Richer, D. L, Pestic. Sci. 19, 309-315, 1987. In Limpel's formula, X and Y are the percentages of inhibition relative to each compound used alone and Ee is the expected effect for an additional (non-synergistic) effect. If the combination of the two agents produces an observed effect (Eo) greater than Ee, synergism exists, and as the difference between Eo and Ee increases, the level of synergism is greater. In this experiment, the X value (percentage inhibition by fungal cell wall degrading enzyme when used alone was chosen to be 10 (10% inhibition of spore germination when used alone) and the observed effect, Eo, was 50 (i.e., 50% inhibition of spore germination). The Y values were obtained from the determined concentrations of antifungal cell membrane affecting compound causing the ED50 for a combination and the dose response curves for the antifungal cell membrane affecting compound used alone—i.e., the Y value was the percent inhibition for the antifungal fungal cell membrane affecting compound when used alone for the concentration of antifungal fungal cell membrane affecting compound that was determined to cause the ED50 for the combination. Ee values were then calculated from Limpel's formula. […]

[3] = test system: Botrytis cinerea; test: Inhibition of spore germination, Eppendorf tube assay (Examples I and II); type: cell-based; conditions: for expected percent inhibition for an additive response (Limpel's formula) at 0.5 µg/mL: read-out: Ee, expected effect from an additive response according to Limpel's formula, percent inhibition; for ED50 of fungicide (dose effective for 50% inhibition): Table 9
[4] = test system: B. cinerea strain 12; test: Inhibition of spore germination, ELISA plate assay (Examples III-XVI, XVIII); type: cell-based, Botrytis cinerea; conditions: Table 21; concentration of miconazole for 50% inhibition, alone or with enzyme at its ED10 concentration
Protocol: as §1, §2
Each of 8 antifungal fungal cell membrane affecting compounds were used in combination with each of 8 or 6 fungal cell wall degrading enzymes to provide 50% inhibition (ED50) of B. cinerea strain 12 spore germination. Each fungal cell wall degrading enzyme was used at a concentration giving 10% inhibition of spore germination when used alone in combination with an amount of antifungal fungal cell membrane affecting compound so the combination gave 50% inhibition of spore germination.
as §3
The relative level of synergism (RS below) for each combination was calculated by applying Limpel's formula: Ee=X+Y−(XY/100) as described in Richer, D. L, Pestic. Sci. 19, 309-315, 1987. In Limpel's formula, X and Y are the percentages of inhibition relative to each compound used alone and Ee is the expected effect for an additional (non-synergistic) effect. If the combination of the two agents produces an observed effect (Eo) greater than Ee, synergism exists, and as the difference between Eo and Ee increases, the level of synergism is greater. […]

For `Clc1ccc(COC(Cn2ccnc2)c2ccc(Cl)cc2Cl)c(Cl)c1` (stereo not drawn) [Miconazole, miconazole], the “solubility (solvent in which the substance dissolves)” value [1] was “dissolves in 50% (v:v) ethanol”, the ED50 [2] was 5.0 (4.5-5.5) ng ml^−1 and the inhibition at 0.5 µg/mL ([3]; Botrytis cinerea, Table 4, enzyme 0 μg ml^−1 (fungicide alone), flusilazole 5 ng ml^−1, miconazole 0.5 μg ml^−1, read-out: % inhibition) was 19%. For the same molecule, the inhibition at 0.5 µg/mL ([3]; Botrytis cinerea, Table 5, endochitinase from G. virens strain 41 at 25 μg ml^−1, with flusilazole 5 ng ml^−1, miconazole 0.5 μg ml^−1 or none (enzyme alone), read-out: % inhibition) was 99%, the inhibition at 0.5 µg/mL ([3]; Botrytis cinerea, Table 5, enzyme 0 μg ml^−1 (fungicide alone), flusilazole 5 ng ml^−1, miconazole 0.5 μg ml^−1, read-out: % inhibition) was 19% and the inhibition at 0.5 µg/mL ([3]; Botrytis cinerea, Table 6, enzyme 0 μg ml^−1 (fungicide alone), flusilazole 5 ng ml^−1, miconazole 0.5 μg ml^−1, read-out: % inhibition) was 19%. It also gave an inhibition at 0.5 µg/mL ([3]; Botrytis cinerea, Table 7, enzyme 0 μg ml^−1 (fungicide alone), flusilazole 5 ng ml^−1, miconazole 0.5 μg ml^−1, read-out: % inhibition) of 19%, an expected percent inhibition for an additive response (Limpel's formula) at 0.5 µg/mL ([3]; Botrytis cinerea, with Chitob. (P1) 25 μg ml^−1, flusilazole 5 ng ml^−1, miconazole 0.5 μg ml^−1) of 27.9% and an inhibition at 0.5 µg/mL ([3]; Botrytis cinerea, with Chitob. (P1) 25 μg ml^−1, flusilazole 5 ng ml^−1, miconazole 0.5 μg ml^−1, read-out: Io, percent inhibition observed) of 85%. The expected percent inhibition for an additive response (Limpel's formula) at 0.5 µg/mL ([3]; Botrytis cinerea, with Endoc. (41) 25 pg ml^−1 (so in the source), flusilazole 5 ng ml^−1, miconazole 0.5 μg ml^−1) was 19%, the inhibition at 0.5 µg/mL ([3]; Botrytis cinerea, with Endoc. (41) 25 pg ml^−1 (so in the source), flusilazole 5 ng ml^−1, miconazole 0.5 μg ml^−1, read-out: Io, percent inhibition observed) was 66% and the expected percent inhibition for an additive response (Limpel's formula) at 0.5 µg/mL ([3]; Botrytis cinerea, with Endoc. (P1) 25 μg ml^−1, flusilazole 5 ng ml^−1, miconazole 0.5 μg ml^−1) was 42.5%. It also gave an inhibition at 0.5 µg/mL ([3]; Botrytis cinerea, with Endoc. (P1) 25 μg ml^−1, flusilazole 5 ng ml^−1, miconazole 0.5 μg ml^−1, read-out: Io, percent inhibition observed) of 100%, an expected percent inhibition for an additive response (Limpel's formula) at 0.5 µg/mL ([3]; Botrytis cinerea, with Glucan. (P1) 25 μg ml^−1, flusilazole 5 ng ml^−1, miconazole 0.5 μg ml^−1) of 23% and an inhibition at 0.5 µg/mL ([3]; Botrytis cinerea, with Glucan. (P1) 25 μg ml^−1, flusilazole 5 ng ml^−1, miconazole 0.5 μg ml^−1, read-out: Io, percent inhibition observed) of 70%. It also gave an inhibition at 0.5 µg/mL ([3]; Table 4, endochitinase from T. harzianum strain P1 at 75 μg ml^−1, with flusilazole 5 ng ml^−1, miconazole 0.5 μg ml^−1 or none (enzyme alone), read-out: % inhibition) of 100%, an inhibition at 0.5 µg/mL ([3]; Table 6, chitobiosidase from T. harzianum strain P1 at 75 μg ml^−1, with flusilazole 5 ng ml^−1, miconazole 0.5 μg ml^−1 or none (enzyme alone), read-out: % inhibition) of 100% and an inhibition at 0.5 µg/mL ([3]; Table 7, glucan 1,3-β-glucosidase from T. harzianum strain P1 at 100 μg ml^−1, with flusilazole 5 ng ml^−1, miconazole 0.5 μg ml^−1 or none (enzyme alone), read-out: % inhibition) of 100%. For the same molecule, the “ED50 of fungicide (dose effective for 50% inhibition)” value ([3]; no endochitinase (0 μg ml^−1)) was 3.0 µg/mL, the “ED50 of fungicide (dose effective for 50% inhibition)” value ([3]; with endochitinase from T. harzianum strain P1 at 10 μg ml^−1) was 0.06 µg/mL and the “ED50 of fungicide (dose effective for 50% inhibition)” value ([3]; with endochitinase from T. harzianum strain P1 at 25 μg ml^−1) was 0.04 µg/mL. The ED50 of fungicide ([3]; Table 10, no chitobiosidase (0 μg ml^−1)) was 3.0 µg/mL, the ED50 of fungicide ([3]; Table 10, with chitobiosidase from T. harzianum strain P1 at 25 μg ml^−1) was 0.06 µg/mL and the ED50 of fungicide ([3]; Table 10, with chitobiosidase from T. harzianum strain P1 at 50 μg ml^−1) was 0.045 µg/mL. The ED50 of fungicide ([3]; Table 10, with chitobiosidase from T. harzianum strain P1 at 75 μg ml^−1) was 0.04 µg/mL, the ED50 of fungicide ([3]; Table 10, with chitobiosidase from T. harzianum strain P1 at 100 μg ml^−1) was 0.03 µg/mL and the ED50 of fungicide ([3]; Table 11, no glucosidase (0 μg ml^−1)) was 3.0 µg/mL. The ED50 of fungicide ([3]; Table 11, with glucan 1,3-β-glucosidase from T. harzianum strain P1 at 25 μg ml^−1) was 0.27 µg/mL, the ED50 of fungicide ([3]; Table 11, with glucan 1,3-β-glucosidase from T. harzianum strain P1 at 50 μg ml^−1) was 0.04 µg/mL and the ED50 of fungicide ([3]; Table 11, with glucan 1,3-β-glucosidase from T. harzianum strain P1 at 75 μg ml^−1) was 0.0018 µg/mL. For the same molecule, the ED50 of fungicide ([3]; Table 12, no endochitinase (0 μg ml^−1)) was 3.0 µg/mL, the ED50 of fungicide ([3]; Table 12, with endochitinase from G. virens strain 41 at 25 μg ml^−1) was 0.092 µg/mL and the ED50 of fungicide ([3]; Table 12, with endochitinase from G. virens strain 41 at 50 μg ml^−1) was 0.06 µg/mL. For the same molecule, the ED50 of fungicide ([3]; Table 12, with endochitinase from G. virens strain 41 at 75 μg ml^−1) was 0.04 µg/mL, the ED50 of fungicide ([3]; Table 12, with endochitinase from G. virens strain 41 at 100 μg ml^−1) was 0.025 µg/mL and the ED50 [4] was 3.0 (2-4) ng ml^−1.
